Like-named read-outs stand apart in the source and are kept apart here.
Biological target: T1, Human GLP-1 receptor stably expressing cells (hGLP-1R/CHO-K1 cells) (Homo sapiens, UniProt P43220)
T1 construct: expressed in transfected cells
Assay: Measurement of GLP-1 receptor agonist activity (cAMP assay)
Type: cell-based
Conditions: for Emax: cAMP with 2 nM human GLP-1 (7-36) = 100%, DMSO only = 0%; for EC50: increase in cAMP concentration in hGLP-1R/CHO-K1 cells, 37° C. 1 hour
Method: Test Example 1: Measurement of GLP-1 Receptor Agonist Activity
Human GLP-1 receptor stably expressing cells (hGLP-1R/CHO-K1 cells) are cultured in an a-MEM medium (Sigma) containing 10% FBS (Hyclone), 2% GlutaMAX (Gibco), 1% G418 (Nacalai Tesque), and 1% Penicillin-Streptomycin Mixed Solution (Sigma) at 37° C. under 5% CO2 conditions, and recovered by treating a 10 fold diluted 5.0 g/1-trypsin/5.3 mmol/1-EDTA solution (Nacalai Tesque) and cryopreserved.
A DMSO solution containing the compound of the present invention or human GLP-1 (7-36) (Phoenix Pharmaceuticals) is dispensed into a 384-well microplate (Greiner) at 62.5 nL/well, and in addition, 400 μM Forskolin (Nacalai Tesque) is dispensed therein at 7.5 nL/well. Subsequently, the frozen GLP-1 R/CHO-K1 cells are thawed in a thermostatic bath at 37° C., suspended in HBSS buffer (GIBCO) containing 0.1% BSA (Sigma), 20 mM HEPES, 0.1 mM IBMX (Sigma), and 0.2 mM RO20-1724 (Calbiochem) at 2×10^4 cells/mL, and the cell suspension is added at 6 μL/well. The solution was incubated at 37° C. for 1 hour and intracellular cAMP concentration is measured using cAMP Gs dynamic kit (Cisbio) according to the protocol attached to the product. Specifically, a cAMP-d2/Anti-cAMP-Cryptate (1/1) mixture solution is added in a total amount of 6 μL/well, and is incubated at room temperature for 1 hour, and then, time-resolved fluorescence is measured using PHERAstar (BMG Labtech).
Assuming that the cAMP concentration when human GLP-1 (7-36) is dispensed to a final concentration of 2 nM is 100% and the cAMP concentration when only DMSO is dispensed is 0%, the 50% effective concentration (EC50) and the maximum effect (Emax) of the compound of the present invention are calculated using an increase in the cAMP concentration as an index, using TIBCO Spotfire (TIBCO Software). The dilution concentration or the dilution solvent are changed as necessary.
The compounds of the present invention were tested essentially as described above.

[1] = CHO-K1, maximum effect, read-out: Emax

T1 sequence (P43220 24-463): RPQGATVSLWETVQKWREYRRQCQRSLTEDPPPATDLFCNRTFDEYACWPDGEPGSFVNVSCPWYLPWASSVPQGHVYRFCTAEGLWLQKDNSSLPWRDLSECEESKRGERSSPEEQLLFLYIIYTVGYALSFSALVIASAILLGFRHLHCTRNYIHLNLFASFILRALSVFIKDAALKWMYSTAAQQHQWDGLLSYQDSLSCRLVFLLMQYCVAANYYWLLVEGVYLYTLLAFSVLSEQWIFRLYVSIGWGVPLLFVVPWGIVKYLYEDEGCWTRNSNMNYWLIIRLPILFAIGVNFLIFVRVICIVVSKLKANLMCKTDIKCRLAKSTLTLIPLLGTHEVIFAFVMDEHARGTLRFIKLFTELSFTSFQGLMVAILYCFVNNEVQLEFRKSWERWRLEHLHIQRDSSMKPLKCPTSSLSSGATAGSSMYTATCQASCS

| SMILES | Emax [1] | EC50 | Emax (maximum effect) |
| --- | --- | --- | --- |
| C[C@H]1c2c(cc(C(F)(F)F)c3c2O[C@](C)(c2ccc(Cl)cn2)O3)CCN1Cc1nc2ccc(C(=O)O)cc2n1C[C@@H]1CCO1 [Compound I-026] | 53.3% | 4210 nM |  |
| C[C@H]1c2nc(OCc3ccc(OC(F)F)cc3F)c(C(F)F)cc2CCN1Cc1nc2ccc(C(=O)O)cc2n1C[C@@H]1CCO1 [Compound I-059] | 104% | 1.28 nM |  |
| C[C@H]1c2nc(OCc3ccc(F)cc3)c(C(F)F)cc2CCN1Cc1nc2ccc(C(=O)O)c(F)c2n1C[C@@H]1CCO1 [Compound I-117] | 118% | 0.372 nM |  |
| C[C@H]1c2c(cc(C(F)(F)F)c3c2OC(C)(c2ccc(Cl)cc2F)O3)CCN1Cc1nc2ccc(C(=O)O)cc2n1C[C@@H]1CCO1 (mixture of isomers) [Compound I-015] | 93.3% | 2.33 nM |  |
| C[C@H]1c2c(cc(C(F)(F)F)c3c2O[C@@](C)(c2ccc(Cl)cc2F)O3)CCN1Cc1nc2ccc(C(=O)O)cc2n1C[C@@H]1CCO1 [Compound I-047] | 146% | 0.903 nM |  |
| C[C@H]1c2c(ccc3c2OC(C)(c2ccc(Cl)cc2F)O3)CCN1Cc1nc2ccc(C(=O)O)cc2n1C[C@@H]1CCO1 (some centres unmarked) [Compound I-091] | 91.7% | 2.64 nM |  |
| COc1cc(C(=O)O)cc2c1nc(CN1CCc3cc(C(F)(F)F)c(OCc4cc(Cl)n(C)n4)nc3[C@@H]1C)n2C[C@@H]1CCO1 [Compound I-155] | 96.3% | 0.87 nM |  |
| C[C@H]1c2nc(OCc3ccc(C#N)cc3F)c(C(F)F)cc2CCN1Cc1nc2ccc(C(=O)O)nc2n1C[C@@H]1CCO1 [Compound I-103] | 97% | 0.558 nM |  |
| Cc1ccc(COc2nc3c(cc2C(F)F)CCN(Cc2nc4ccc(C(=O)O)nc4n2C[C@@H]2CCO2)[C@H]3C)cc1 [Compound I-098] | 118% | 1.16 nM |  |
| C[C@H]1c2nc(OCc3ccc(Cl)cn3)c(C(F)F)cc2CCN1Cc1nc2ccc(C(=O)O)cc2n1C[C@@H]1CCO1 [Compound I-058] | 92.7% | 0.924 nM |  |
| C[C@H]1c2c(cc(C(F)(F)F)c3c2O[C@@](C)(c2ccc(Cl)cn2)O3)CCN1Cc1nc2ccc(C(=O)O)cc2n1C[C@@H]1CCO1 [Compound I-027] | 119% | 0.701 nM |  |
| C[C@H]1c2cc(OCc3c(F)cc(F)cc3F)c(C(F)F)cc2CCN1Cc1nc2ccc(C(=O)O)cc2n1C[C@@H]1CCO1 [Compound I-013] | 114% | 4.21 nM |  |
| C[C@H]1c2nc(OCc3ccc(Cl)cc3F)c(C(F)(F)F)cc2CCN1Cc1nc2sc(C(=O)O)cc2n1C[C@@H]1CCO1 [Compound I-049] | 112% | 0.307 nM |  |
| C[C@H]1c2nc(NCc3ccc(Cl)cn3)c(C(F)(F)F)cc2CCN1Cc1nc2c(Cl)cc(C(=O)O)cc2n1C[C@@H]1CCO1 [Compound I-197] | 111% | 0.345 nM |  |
| O=C(O)c1ccc2nc(CC3CCc4cc(C(F)(F)F)c(OCc5ccc(Cl)cc5F)cc4C3)n(C[C@@H]3CCO3)c2c1 (some centres unmarked) [Compound I-077] | 92.3% | 7.35 nM |  |
| C[C@H]1c2c(cc(Cl)c3c2OC(C)(c2ccc(Cl)cc2F)O3)CCN1Cc1nc2ccc(C(=O)O)cc2n1C[C@@H]1CCO1 (some centres unmarked) [Compound I-090] | 98% | 2.05 nM |  |
| C[C@H]1c2nc(OCc3nc4ccccc4s3)c(C(F)(F)F)cc2CCN1Cc1nc2ccc(C(=O)O)cc2n1C[C@@H]1CCO1 [Compound I-050] | 97% | 0.638 nM |  |
| C[C@H]1c2nc(OCc3c(F)cc(F)cc3F)c(C(F)F)cc2CCN1Cc1nc2ccc(C(=O)O)cc2n1C[C@@H]1CCO1 [Compound I-061] | 101% | 0.295 nM |  |
| C[C@H]1c2nc(OCc3c(F)cc(F)cc3F)c(Cl)cc2CCN1Cc1nc2ccc(C(=O)O)cc2n1C[C@@H]1CCO1 [Compound I-025] | 113% | 0.307 nM |  |
| Cc1ccc(COc2nc3c(cc2Cl)CCN(Cc2nc4ccc(C(=O)O)cc4n2C[C@@H]2CCO2)[C@H]3C)cc1 [Compound I-018] |  | 0.348 nM | 133% |
| C[C@H]1c2c(cc(C(F)(F)F)c3c2O[C@@](C)(c2ccc(Cl)cn2)O3)CCN1Cc1nc2c(F)cc(C(=O)O)cc2n1C[C@@H]1CCO1 [Compound I-156] | 101% | 0.671 nM |  |

Stronger by EC50, values ahead:

| Emax [1] | EC50 | Emax (maximum effect) | SMILES |
| --- | --- | --- | --- |
| 106% | 0.0739 nM |  | C[C@H]1c2nc(OCc3ccc(Cl)cc3F)c(Cl)cc2CCN1Cc1nc2c(F)cc(C(=O)O)cc2n1C[C@@H]1CCO1 [Compound I-089] |
| 109% | 0.121 nM |  | COc1cc(C(=O)O)cc2c1nc(CN1CCc3cc(C#N)c(OCc4ccccc4Cl)nc3[C@@H]1C)n2C[C@@H]1CCO1 [Compound I-145] |
| 111% | 0.038 nM |  | C[C@H]1c2nc(OCc3ccc(Cl)cc3F)c(C(F)F)cc2CCN1Cc1nc2c(F)cc(C(=O)O)cc2n1C[C@@H]1CCO1 [Compound I-108] |
| 127% | 0.0162 nM |  | COc1cc(C(=O)O)cc2c1nc(CN1CCc3cc(C(F)F)c(OCc4ccc(Cl)cc4Cl)nc3[C@@H]1C)n2C[C@@H]1CCO1 [Compound I-132] |
| 137% | 0.04 nM |  | COc1cc(Cl)ccc1COc1nc2c(cc1C#N)CCN(Cc1nc3c(Cl)cc(C(=O)O)cc3n1C[C@@H]1CCO1)[C@H]2C [Compound I-187] |
| 115% | 0.038 nM |  | C[C@H]1c2nc(OCc3c(F)cc(Cl)cc3F)c(C(F)F)cc2CCN1Cc1nc2ccc(C(=O)O)c(F)c2n1C[C@@H]1CCO1 [Compound I-124] |
| 118% | 0.0493 nM |  | COc1cc(C(=O)O)cc2c1nc(CN1CCc3cc(Cl)c(OCc4c(F)cc(F)cc4F)nc3[C@@H]1C)n2C[C@@H]1CCO1 [Compound I-075] |
| 112% | 0.19 nM |  | C[C@H]1c2nc(NCc3ccc(Cl)cc3F)c(C(F)(F)F)cc2CCN1Cc1nc2ccc(C(=O)O)c(F)c2n1C[C@@H]1CCO1 [Compound I-153] |
| 112% | 0.073 nM |  | C[C@H]1c2nc(OCc3ccc(Cl)cc3Cl)c(C(F)F)cc2CCN1Cc1nc2ccc(C(=O)O)c(F)c2n1C[C@@H]1CCO1 [Compound I-122] |
| 145% | 0.0637 nM |  | C[C@H]1c2nc(OCc3ccc(C#N)cc3F)c(Cl)cc2CCN1Cc1nc2ccc(C(=O)O)c(F)c2n1C[C@@H]1CCO1 [Compound I-041] |
| 96.3% | 0.174 nM |  | C[C@H]1c2nc(OCc3ccc(Cl)cc3F)c(C(F)(F)F)nc2CCN1Cc1nc2ccc(C(=O)O)cc2n1C[C@@H]1CCO1 [Compound I-174] |
| 126% | 0.0595 nM |  | C[C@H]1c2nc(OCc3ccc(Cl)cc3Cl)c(Cl)cc2CCN1Cc1nc2ccc(C(=O)O)c(F)c2n1C[C@@H]1CCO1 [Compound I-038] |
| 128% | 0.162 nM |  | COc1cc(C(=O)O)cc2c1nc(CN1CCc3cc(C#N)c(OCc4ccc(Cl)cn4)nc3[C@@H]1C)n2C[C@@H]1CCO1 [Compound I-147] |
| 135% | 0.0972 nM |  | C[C@H]1c2nc(OCc3ccc(Cl)cc3Cl)c(Cl)cc2CCN1Cc1nc2ccc(C(=O)O)cc2n1C[C@@H]1CCO1 [Compound I-020] |
| 106% | 0.0375 nM |  | COc1cc(C(=O)O)cc2c1nc(CN1CCc3cc(Cl)c(OCc4ccc(Cl)cc4)nc3[C@@H]1C)n2C[C@@H]1CCO1 [Compound I-066] |
| 118% | 0.0326 nM |  | COc1cc(C(=O)O)cc2c1nc(CN1CCc3cc(C#N)c(OCc4ccc(Cl)cc4F)nc3[C@@H]1C)n2C[C@@H]1CCO1 [Compound I-139] |
| 123% | 0.0856 nM |  | C[C@H]1c2nc(OCc3c(F)cc(F)cc3F)c(C(F)F)cc2CCN1Cc1nc2ccc(C(=O)O)c(F)c2n1C[C@@H]1CCO1 [Compound I-125] |
| 112% | 0.194 nM |  | COc1cc(C(=O)O)cc2c1nc(CN1CCc3cc(Cl)c(OCc4ccccc4Cl)nc3[C@@H]1C)n2C[C@@H]1CCO1 [Compound I-068] |
| 112% | 0.101 nM |  | C[C@H]1c2nc(OCc3ccc(Cl)cc3)c(C(F)F)cc2CCN1Cc1nc2c(F)cc(C(=O)O)cc2n1C[C@@H]1CCO1 [Compound I-109] |
| 123% | 0.0514 nM |  | COc1cc(C(=O)O)cc2c1nc(CN1CCc3cc(C(F)(F)F)c(NCc4ccc(C#N)cc4F)nc3[C@@H]1C)n2C[C@@H]1CCO1 [Compound I-195] |
| 105% | 0.147 nM |  | C[C@H]1c2nc(OCc3c(F)cc(Cl)cc3F)c(C(F)F)cc2CCN1Cc1nc2ccc(C(=O)O)cc2n1C[C@@H]1CCO1 [Compound I-060] |
| 109% | 0.0422 nM |  | COc1cc(C(=O)O)cc2c1nc(CN1CCc3cc(Cl)c(OCc4ccc(F)cc4F)nc3[C@@H]1C)n2C[C@@H]1CCO1 [Compound I-069] |
